In series [1] the test system is mustard beetle (Phaedon cochleariae). Briefly: Phaedon test (PHAECO spray treatment), Example 7. It is filed as in vivo. To be noted: application rate 20 g/ha, china cabbage leaf discs sprayed, after 7 days. Here is the method:
Phaedon Test (PHAECO Spray Treatment)
• Solvent: 78.0 parts by weight of acetone • 1.5 parts by weight of dimethylformamide • Emulsifier: 0.5 part by weight of alkylaryl polyglycol ether
To prepare an active ingredient formulation, 1 part by weight of active ingredient is mixed with the stated amounts of solvent and emulsifier, and the concentrate is diluted with emulsifier-containing water to the desired concentration. Leaf discs from china cabbage (Brassica pekinensis) are sprayed with an active ingredient formulation of the desired concentration and, after drying, populated with larvae of the mustard beetle (Phaedon cochleariae).
After 7 days, the efficacy in % is determined. 100% means that all beetle larvae were killed; 0% means that no beetle larvae were killed.

A short description of series [2]: logP by HPLC on reverse-phase column (EEC Directive 79/831 Annex V.A8). It is filed as physicochemical. The procedure: The logP values reported in the above Tables and Preparation Examples were determined according to EEC Directive 79/831 Annex V.A8 by HPLC (High Performance Liquid Chromatography) on a reverse-phase column (C18). Temperature 43° C.
Where [3] appears, read: HPLC, C18 reverse phase, 43° C., acidic range pH 2.7, calibration with alkan-2-ones.

The values that follow come from patent US8889878B2, “Haloalky-substituted amides as insecticides and acaricides” (Bayer CropScience AG, priority 2009, dated 2014).

Consider `Cc1cc(/C=C/C(=O)NC(c2cccc(C(F)(F)F)c2)C(F)(F)F)ccc1C(=O)NC(C)C` (stereo not drawn) [Ia-102], for which the efficacy in % in series [1] worked out at 100%. The logP entry in series [2] (HPLC-MS) is given as “HPLC-MS: logP = 3.27 mass”.
Consider `Cc1cc(/C=C/C(=O)NC(c2cccc(C(F)(F)F)c2)C(F)(F)F)ccc1C(=O)NCc1ccc(F)cn1` (stereo not drawn) [Ia-87], for which the efficacy in % in series [1] was 100%. In addition, the logP entry in series [2] (HPLC-MS) is “HPLC-MS: logP = 3.13 mass”.
The like results for `O=C(/C=C/c1ccc(C(=O)NC2CCCNC2=O)c(Cl)c1)NC(c1cccc(C(F)(F)F)c1)C(F)(F)F` (stereo not drawn) [Ia-106] were, in that order, 100% and “HPLC-MS: logP = 2.61 mass”.
The like results for `O=C(/C=C/c1ccc(C(=O)NCC(F)F)c(Br)c1)NC(c1cccc(C(F)(F)F)c1)C(F)(F)F` (stereo not drawn) [Ia-104] were, in that order, 100% and “HPLC-MS: logP = 3.23 mass”.
On the same counts, the results for `O=C(/C=C/c1ccc(C(=O)Nc2ccncc2)c(Br)c1)NC(c1cccc(C(F)(F)F)c1)C(F)(F)F` (stereo not drawn) [Ia-91] are 100% and “HPLC-MS: logP = 1.96 mass”.
The molecule `CN(C(=O)c1ccc(/C=C/C(=O)NC(c2cccc(C(F)(F)F)c2)C(F)(F)F)cc1Br)c1ccccn1` (stereo not drawn) [Ia-89] returned an efficacy in % in series [1] of 100%. Further, the logP entry in series [2] (HPLC-MS) was “HPLC-MS: logP = 3.47 mass”.
In series [1], `COC(=O)N(C)NC(=O)c1ccc(/C=C/C(=O)NC(c2cccc(C(F)(F)F)c2)C(F)(F)F)cc1Br` (stereo not drawn) [Ia-103] yielded an efficacy in % of 100%. In series [2] (HPLC-MS), the logP entry is “HPLC-MS: logP = 2.89 mass”.
Molecule `O=C(NC(c1cc(Cl)cc(C(F)(F)F)c1)C(F)(F)F)c1cc2cc(Cl)c(C(=O)NC3CC3)cc2[nH]1` (stereo not drawn) [Ic-20] showed an efficacy in % in series [1] of 100%. In series [2] (setting [3]), the logP result is “HPLC-MS: logP = 3.47; mass”.
The like results for `O=C(NC(c1cccc(C(F)(F)F)c1)C(F)(F)F)c1cc2cc(C(=O)NCc3ccccn3)c(Cl)cc2[nH]1` (racemic) [Ic-23] were, in that order, 100% and “HPLC-MS: logP = 2.49; mass”.
In series [1], `O=C(/C=C/c1ccc(C(=O)NCC(=O)NCC(F)(F)F)c(Cl)c1)NC(c1cccc(C(F)(F)F)c1)C(F)(F)F` (stereo not drawn) [Ia-107] had an efficacy in % of 100%. Moreover, the logP result in series [2] (HPLC-MS) was “HPLC-MS: logP = 2.99 mass”.
The like results for `Cc1cc(/C=C/C(=O)NC(c2cccc(C(F)(F)F)c2)C(F)(F)F)ccc1C(=O)NC1COC1` (stereo not drawn) [Ia-83] were, in that order, 100% and “HPLC-MS: logP = 2.69 mass”.
The molecule `COC(=O)NNC(=O)c1ccc(/C=C/C(=O)NC(c2cccc(C(F)(F)F)c2)C(F)(F)F)cc1Cl` (stereo not drawn) [Ia-109] showed an efficacy in % in series [1] of 100%. For the same molecule, the logP result in series [2] (HPLC-MS) is “HPLC-MS: logP = 2.72 mass”.
The like results for `Cc1cc(/C=C/C(=O)NC(c2cccc(C(F)(F)F)c2)C(F)(F)F)ccc1C(=O)Nc1ccncc1` (stereo not drawn) [Ia-88] were, in that order, 100% and “HPLC-MS: logP = 1.87 mass”.
The like results for `CC(F)(F)CNC(=O)c1ccc(/C=C/C(=O)NC(c2cccc(C(F)(F)F)c2)C(F)(F)F)cc1Cl` (stereo not drawn) [Ia-111] were, in that order, 100% and “HPLC-MS: logP = 3.37 mass”.
On the same counts, the results for `O=C(/C=C/c1ccc(C(=O)Nc2ccccn2)c(Cl)c1)NC(c1cccc(C(F)(F)F)c1)C(F)(F)F` (stereo not drawn) [Ia-98] are 100% and “HPLC-MS: logP = 3.47 mass”.
Molecule `O=C(NC(c1cc(Cl)cc(Cl)c1)C(F)(F)F)c1cc2ccc(C(=O)NC3CC3)c(Cl)c2[nH]1` (racemic) [Ic-22] had an efficacy in % in series [1] of 100%. Moreover, the logP result in series [2] (setting [3]) is on record as “HPLC-MS: logP = 3.42; mass”.
In series [1], `Cc1cc(/C=C/C(=O)NC(c2cccc(C(F)(F)F)c2)C(F)(F)F)ccc1C(=O)NC1CCC1` (stereo not drawn) [Ia-101] had an efficacy in % of 100%. Besides, the logP result in series [2] (HPLC-MS) is listed as “HPLC-MS: logP = 3.53 mass”.
On the same counts, the results for `Cc1cc(/C=C/C(=O)NC(c2cccc(C(F)(F)F)c2)C(F)(F)F)ccc1C(=O)NC1CCOCC1` (stereo not drawn) [Ia-86] are 100% and “HPLC-MS: logP = 2.89 mass”.
